Assays:
Format in all cases: functional
Conditions in all cases: read-out: IZ
Fusarium oxysporum [1] = assay: Antifungal activity against Fusarium oxysporum at 600 ug/ml after 48 hr
Enterococcus faecalis [2] = assay: Antibacterial activity against Enterococcus faecalis at 600 ug/ml after overnight incubation
Enterococcus faecalis [3] = assay: Antibacterial activity against Enterococcus faecalis at 900 ug/ml after overnight incubation
Streptococcus pyogenes [4] = assay: Antibacterial activity against Streptococcus pyogenes at 900 ug/ml after overnight incubation
Priestia megaterium [5] = assay: Antibacterial activity against Bacillus megaterium at 900 ug/ml after overnight incubation
Staphylococcus aureus [6] = assay: Antibacterial activity against Staphylococcus aureus at 600 ug/ml after overnight incubation
Bacillus pumilus [7] = assay: Antibacterial activity against Bacillus pumilus at 900 ug/ml after overnight incubation
Fusarium oxysporum [8] = assay: Antifungal activity against Fusarium oxysporum at 300 ug/ml after 48 hr
Exserohilum rostratum [9] = assay: Antifungal activity against Setosphaeria rostrata at 300 ug/ml after 48 hr
Klebsiella aerogenes [10] = assay: Antibacterial activity against Enterobacter aerogenes at 900 ug/ml after overnight incubation
Klebsiella pneumoniae [11] = assay: Antibacterial activity against Klebsiella pneumoniae at 900 ug/ml after overnight incubation
Proteus vulgaris [12] = assay: Antibacterial activity against Proteus vulgaris at 600 ug/ml after overnight incubation
Exserohilum rostratum [13] = assay: Antifungal activity against Setosphaeria rostrata at 900 ug/ml after 48 hr
Klebsiella pneumoniae [14] = assay: Antibacterial activity against Klebsiella pneumoniae at 600 ug/ml after overnight incubation
Staphylococcus aureus [15] = assay: Antibacterial activity against Staphylococcus aureus at 900 ug/ml after overnight incubation
Bacillus pumilus [16] = assay: Antibacterial activity against Bacillus pumilus at 600 ug/ml after overnight incubation
Exserohilum rostratum [17] = assay: Antifungal activity against Setosphaeria rostrata at 1200 ug/ml after 48 hr
Colletotrichum falcatum [18] = assay: Antifungal activity against Glomerella tucumanensis at 300 ug/ml after 48 hr
Fusarium oxysporum [19] = assay: Antifungal activity against Fusarium oxysporum at 1200 ug/ml after 48 hr
Colletotrichum falcatum [20] = assay: Antifungal activity against Glomerella tucumanensis at 1200 ug/ml after 48 hr
Escherichia coli [21] = assay: Antibacterial activity against Escherichia coli at 900 ug/ml after overnight incubation
Klebsiella aerogenes [22] = assay: Antibacterial activity against Enterobacter aerogenes at 600 ug/ml after overnight incubation
Candida albicans [23] = assay: Antifungal activity against Candida albicans at 900 ug/ml after 48 hr
Bacillus subtilis [24] = assay: Antibacterial activity against Bacillus subtilis at 600 ug/ml after overnight incubation
Priestia megaterium [25] = assay: Antibacterial activity against Bacillus megaterium at 600 ug/ml after overnight incubation
Escherichia coli [26] = assay: Antibacterial activity against Escherichia coli at 600 ug/ml after overnight incubation
Fusarium oxysporum [27] = assay: Antifungal activity against Fusarium oxysporum at 900 ug/ml after 48 hr
Candida albicans [28] = assay: Antifungal activity against Candida albicans at 300 ug/ml after 48 hr
Exserohilum rostratum [29] = assay: Antifungal activity against Setosphaeria rostrata at 600 ug/ml after 48 hr
Candida albicans [30] = assay: Antifungal activity against Candida albicans at 600 ug/ml after 48 hr
Bacillus subtilis [31] = assay: Antibacterial activity against Bacillus subtilis at 900 ug/ml after overnight incubation
Colletotrichum falcatum [32] = assay: Antifungal activity against Glomerella tucumanensis at 600 ug/ml after 48 hr
Colletotrichum falcatum [33] = assay: Antifungal activity against Glomerella tucumanensis at 900 ug/ml after 48 hr
Streptococcus pyogenes [34] = assay: Antibacterial activity against Streptococcus pyogenes at 600 ug/ml after overnight incubation
Proteus vulgaris [35] = assay: Antibacterial activity against Proteus vulgaris at 900 ug/ml after overnight incubation
Candida albicans [36] = assay: Antifungal activity against Candida albicans at 1200 ug/ml after 48 hr

Row | SMILES | zone of inhibition at 600 µg/mL (Enterococcus faecalis [2]) [mm] | zone of inhibition at 900 µg/mL (Enterococcus faecalis [3]) [mm] | zone of inhibition at 900 µg/mL (Streptococcus pyogenes [4]) [mm] | zone of inhibition at 900 µg/mL (Priestia megaterium [5]) [mm] | zone of inhibition at 600 µg/mL (Staphylococcus aureus [6]) [mm] | zone of inhibition at 900 µg/mL (Bacillus pumilus [7]) [mm] | zone of inhibition at 900 µg/mL (Klebsiella aerogenes [10]) [mm] | zone of inhibition at 900 µg/mL (Klebsiella pneumoniae [11]) [mm] | zone of inhibition at 600 µg/mL (Proteus vulgaris [12]) [mm] | zone of inhibition at 600 µg/mL (Klebsiella pneumoniae [14]) [mm] | zone of inhibition at 900 µg/mL (Staphylococcus aureus [15]) [mm] | zone of inhibition at 600 µg/mL (Bacillus pumilus [16]) [mm] | zone of inhibition at 900 µg/mL (Escherichia coli [21]) [mm] | zone of inhibition at 600 µg/mL (Klebsiella aerogenes [22]) [mm] | zone of inhibition at 600 µg/mL (Bacillus subtilis [24]) [mm] | zone of inhibition at 600 µg/mL (Priestia megaterium [25]) [mm] | zone of inhibition at 600 µg/mL (Escherichia coli [26]) [mm] | zone of inhibition at 900 µg/mL (Bacillus subtilis [31]) [mm] | zone of inhibition at 600 µg/mL (Streptococcus pyogenes [34]) [mm] | zone of inhibition at 900 µg/mL (Proteus vulgaris [35]) [mm] | other results
1 | Brc1cccc(-c2nnc(CN3CCC(n4nc5ccccc5n4)CC3)o2)c1 | 3.21 | 5.8 | 7.25 | 7.25 | 4.46 | 8.12 | 11.6 | 7.62 | 2.25 | 3.25 | 8.25 | 4.25 | 6.45 | 5.85 | 4.25 | 3.26 | 3.25 | 9.25 | 3.85 | 5.03 | zone of inhibition at 600 µg/mL (Fusarium oxysporum [1]): 7.86 mm; zone of inhibition at 300 µg/mL (Fusarium oxysporum [8]): 3.55 mm; zone of inhibition at 300 µg/mL (Exserohilum rostratum [9]): 3.98 mm; zone of inhibition at 900 µg/mL (Exserohilum rostratum [13]): 7.96 mm; zone of inhibition at 1200 µg/mL (Exserohilum rostratum [17]): 15.1 mm; zone of inhibition at 300 µg/mL (Colletotrichum falcatum [18]): 2.95 mm; zone of inhibition at 1200 µg/mL (Fusarium oxysporum [19]): 29.9 mm; zone of inhibition at 1200 µg/mL (Colletotrichum falcatum [20]): 17.8 mm; zone of inhibition at 900 µg/mL (Candida albicans [23]): 7.86 mm; zone of inhibition at 900 µg/mL (Fusarium oxysporum [27]): 15.8 mm; zone of inhibition at 300 µg/mL (Candida albicans [28]): 2.5 mm; zone of inhibition at 600 µg/mL (Exserohilum rostratum [29]): 4.01 mm; zone of inhibition at 600 µg/mL (Candida albicans [30]): 4.03 mm; zone of inhibition at 600 µg/mL (Colletotrichum falcatum [32]): 5.01 mm; zone of inhibition at 900 µg/mL (Colletotrichum falcatum [33]): 9.25 mm; zone of inhibition at 1200 µg/mL (Candida albicans [36]): 16.8 mm
2 | Fc1cccc(-c2nnc(CN3CCC(n4nc5ccccc5n4)CC3)o2)c1F | 2.35 | 5.36 | 3.15 | 11.2 | 4.25 | 7.24 | 5.45 | 13.2 | 4.56 | 6.23 | 7.56 | 3.35 | 7.15 | 2.09 | 4.8 | 5.86 | 3.25 | 9.56 | 1.13 | 8.74 | zone of inhibition at 600 µg/mL (Fusarium oxysporum [1]): 7.01 mm; zone of inhibition at 300 µg/mL (Fusarium oxysporum [8]): 4.21 mm; zone of inhibition at 300 µg/mL (Exserohilum rostratum [9]): 3.81 mm; zone of inhibition at 900 µg/mL (Exserohilum rostratum [13]): 15 mm; zone of inhibition at 1200 µg/mL (Exserohilum rostratum [17]): 29.8 mm; zone of inhibition at 300 µg/mL (Colletotrichum falcatum [18]): 4.82 mm; zone of inhibition at 1200 µg/mL (Fusarium oxysporum [19]): 25.4 mm; zone of inhibition at 1200 µg/mL (Colletotrichum falcatum [20]): 33.9 mm; zone of inhibition at 900 µg/mL (Candida albicans [23]): 9.86 mm; zone of inhibition at 900 µg/mL (Fusarium oxysporum [27]): 13.2 mm; zone of inhibition at 300 µg/mL (Candida albicans [28]): 3.33 mm; zone of inhibition at 600 µg/mL (Exserohilum rostratum [29]): 7.86 mm; zone of inhibition at 600 µg/mL (Candida albicans [30]): 5.25 mm; zone of inhibition at 600 µg/mL (Colletotrichum falcatum [32]): 9.25 mm; zone of inhibition at 900 µg/mL (Colletotrichum falcatum [33]): 17.8 mm; zone of inhibition at 1200 µg/mL (Candida albicans [36]): 17.2 mm
3 | CN[C@@H]1[C@H](O[C@H]2[C@H](O[C@H]3[C@H](O)[C@@H](O)[C@H](N=C(N)N)[C@@H](O)[C@@H]3N=C(N)N)O[C@@H](C)[C@]2(O)C=O)O[C@@H](CO)[C@H](O)[C@H]1O [STREPTOMYCIN] | 12.8 | 20.3 | 16.5 | 12.8 | 10.3 | 14.5 | 8.76 | 6.54 | 8.9 | 3.24 | 20 | 7.25 | 6.14 | 4.47 | 8.44 | 6.23 | 3.06 | 16.2 | 8.91 | 16.1 | –

From ChEMBL document CHEMBL3046265, “Synthesis, evaluation of antimicrobial activity, and molecular modeling of novel 2-((4-(2H-benzo[d] [1,2,3] triazol-2-yl)piperidin-1-yl)methyl)-5-substituted phenyl-1,3,4-oxadiazoles” (2013)
